Reference: the NIST ThermoML archive (doi:10.1021/je060271a)
± gives the expanded uncertainty stated by the source.

Conditions: 323.15 K, Liquid, Vibrating tube method

Measured: mass density

CCCCCC(=O)OCC(COC(=O)CCCCC)(COC(=O)CCCCC)COC(=O)CCCCC [pentaerythritol tetrahexanoate]
973.4 ± 1.2 kg/m3: 824.1 kPa | 942.9 kPa | 957 kPa | 963.6 kPa | 975.6 kPa | 978.9 kPa | 991 kPa | 995 kPa | 1003.3 kPa | 1007 kPa | 1011.7 kPa | 1016 kPa | 1062.4 kPa | 1069.5 kPa | 1077.3 kPa | 1085.7 kPa | 1128.6 kPa | 1132.2 kPa | 1137.1 kPa | 1258.3 kPa
973.3 ± 1.2 kg/m3: 623.1 kPa | 744 kPa | 755.1 kPa | 777.5 kPa | 788.3 kPa | 798.4 kPa | 815.2 kPa | 817.7 kPa | 821 kPa | 827.1 kPa | 833.5 kPa | 839.5 kPa | 849.1 kPa | 855.5 kPa | 880.9 kPa | 884.5 kPa | 904 kPa | 906.8 kPa | 910.8 kPa | 913.5 kPa | 926.9 kPa | 930.6 kPa | 933.3 kPa | 940 kPa | 947.1 kPa | 950.7 kPa | 953.5 kPa | 960.8 kPa | 983 kPa | 987 kPa | 999.9 kPa | 1065.9 kPa | 1073.9 kPa
973.7 ± 1.2 kg/m3: 1273.9 kPa
973 ± 1.2 kg/m3: 641.7 kPa | 643.9 kPa
973.5 ± 1.2 kg/m3: 1082 kPa | 1090.4 kPa | 1094.2 kPa | 1099 kPa | 1103 kPa | 1140.7 kPa | 1145.6 kPa | 1149.6 kPa | 1154.3 kPa | 1159 kPa | 1163.8 kPa | 1253.4 kPa | 1263.5 kPa | 1269.2 kPa | 1278.6 kPa | 1294.7 kPa | 1305.5 kPa | 1310 kPa | 1315.4 kPa | 1319.9 kPa | 1325.8 kPa
973.1 ± 1.2 kg/m3: 616.8 kPa | 618.6 kPa | 620.6 kPa | 627.3 kPa | 631.2 kPa | 633 kPa | 634.7 kPa | 637.3 kPa | 639.4 kPa | 659.4 kPa | 666.7 kPa | 674 kPa | 675.9 kPa | 678.5 kPa | 699.5 kPa | 702.1 kPa | 704.4 kPa | 712 kPa | 741.4 kPa | 746.6 kPa | 752.5 kPa | 774.9 kPa | 785.3 kPa
973.6 ± 1.2 kg/m3: 1243.7 kPa | 1248 kPa | 1284.5 kPa | 1289.2 kPa | 1299.6 kPa | 1331.7 kPa | 1411.8 kPa
973.2 ± 1.2 kg/m3: 625.3 kPa | 629.2 kPa | 662 kPa | 664.3 kPa | 668.8 kPa | 671.2 kPa | 681.8 kPa | 684.1 kPa | 707.2 kPa | 709.1 kPa | 749.6 kPa | 757.9 kPa | 760.3 kPa | 765.9 kPa | 768.5 kPa | 772.1 kPa | 780 kPa | 783.1 kPa | 791.4 kPa | 794.4 kPa | 796 kPa | 830.2 kPa | 836.8 kPa | 842.8 kPa | 845.5 kPa | 851.9 kPa | 871.5 kPa | 875.2 kPa | 877.8 kPa | 887.3 kPa | 890.8 kPa | 894.6 kPa | 897.6 kPa | 900.3 kPa | 920.1 kPa | 936.1 kPa | 968.1 kPa | 971.9 kPa
